Source: patent EP0059645A1, “Method and kit for identification of beta-lactamases” (NATIONAL RESEARCH DEVELOPMENT CORPORATION, priority 1981, dated 1982)
Marks after values point to notes of the source that are not given here.

Legend:
K1073 = assay: Competitive assay with nitrocefin (RSAI); type: biochemical, Klebsiella 1073
TEM-1 [1] = molecular target: T1, TEM-1 (Escherichia coli, UniProt P62593); assay: 6-well visual test with nitrocefin; details: 3 minutes, room temperature
TEM-1 [2] = molecular target: T1, TEM-1; assay: Competitive assay with nitrocefin (RSAI); type: biochemical, E. coli 2136E; parameters: the beta-lactamase has to be extracted from the cells for the purpose of the present invention; made in house; host or cells: E. coli 2136E (plasmid-bearing strain; crude cell extract)
PSE-2 [3] = molecular target: T2, PSE-2 (Pseudomonas aeruginosa, UniProt P14489); assay: 6-well visual test with nitrocefin; details: 3 minutes, room temperature
TEM-2 = TEM-2 (Escherichia coli, UniProt P62593, Q37K); assay: 6-well visual test with nitrocefin; details: 3 minutes, room temperature
PSE-2 [4] = molecular target: T2, PSE-2; assay: Competitive assay with nitrocefin (RSAI); type: biochemical, Ps.aerug. 1973E; parameters: Normally, therefore, the beta-lactamase has to be extracted from the cells for the purpose of the present invention; endogenous in cells
[5] = tested on: "unknown" (unidentified) beta-lactamase; assay: Competitive assay with nitrocefin (RSAI) on an unidentified beta-lactamase; details: extract by the method of Example 6, assay as in Example 1; * = showed irreversible inhibition
PSE-1 = PSE-1 (Pseudomonas aeruginosa, UniProt Q03170); assay: 6-well visual test with nitrocefin; details: 3 minutes, room temperature
PSE-4 = PSE-4 (Pseudomonas aeruginosa, UniProt P16897); assay: Competitive assay with nitrocefin (RSAI); type: biochemical, Ps.aerug. 1559E; parameters: Normally, therefore, the beta-lactamase has to be extracted from the cells for the purpose of the present invention; endogenous in cells
[6] = well A: Cefoxitin 20:1 to nitrocefin
[7] = well E: Cefoxitin 200:1 to nitrocefin

Question: What does the source list for `CO[C@@]1(NC(=O)Cc2cccs2)C(=O)N2C(C(=O)O)=C(COC(N)=O)CS[C@@H]21` [Cefoxi-tin, cefoxitin]?
Answer: RSAI (K1073): 1020; Score in 6-well visual test (TEM-1 [1]; [6]): ++; Score in 6-well visual test (TEM-1 [1]; [7]): -; RSAI (TEM-1 [2]): 60*; Score in 6-well visual test (PSE-2 [3]; [6]): +; Score in 6-well visual test (PSE-2 [3]; [7]): -; Score in 6-well visual test (TEM-2; [6]): ++; Score in 6-well visual test (TEM-2; [7]): -; RSAI (PSE-2 [4]): 24; RSAI [5]: 0.008; Score in 6-well visual test (PSE-1; [6]): ++; Score in 6-well visual test (PSE-1; [7]): -; RSAI (PSE-4): 27
